≈ marks a conversion by molar mass, not a printed value.

Data on one compound can be found in paper PMC11984924, “Dipeptidic Phosphonates: Potent Inhibitors of Pseudomonas aeruginosa Elastase B Showing Efficacy in a Murine Keratitis Model” (Advanced Science, 2025).

Experiment [1] has as its system P. aeruginosa strain PA54 keratitis. In words: Murine Pseudomonas keratitis model. The experiment is classed as in vivo, mouse. On the procedure:
Based on our previous findings on target engagement in a murine pneumonia model in combination with a standard‐of‐care antibiotic,^[ [30] ^] we applied the dipeptide (R)‐30 alone and in combination with the commonly used antibiotic meropenem.^[ [9] ^] The keratitis model was carried out using aged female C57BL/6 mice, as previously published.^[ [37] ^] For infection, 5*10^7 colony forming units (CFUs) of PA54 were topically administered on denuded, mechanically harmed corneas. Treatments with meropenem, (R)‐30, or meropenem in combination with (R)‐30 were performed every 8 h for 72 h (first treatment at 6 h post infection). Each of the in total nine 5 µL‐doses contained 1 mg/mL (R)‐30 and/or 0.5 mg mL^−1 meropenem. Sham‐treated mice received 5 µL‐doses of the vehicle (0.9% saline and 1% DMSO) at the time points indicated above, and uninfected eyes received no treatment. […]
(§1) Animals: The animal experiments were approved by Saarland University’s Animal Welfare Committee (Application number: 17/2021) and conducted in accordance with German and European recommendations and guidelines for the ethical use of animals. The laboratory animals were all C57BL/6N female eight to eleven months old mice. Keeping in specific pathogen-free conditions was provided. Unlimited access to water and show was secured.
(§2) Temperature was closely maintained around 22 °C and relative air humidity around 50%. Light and darkness alternated at twelve-hour intervals. All laboratory animals were purchased from Charles River GmbH, Sulzfeld, Germany.
P. aeruginosa: The P. aeruginosa strain PA54 was employed to induce an experimental bacterial keratitis in the aforementioned C57BL/6N mice. The strain PA54 was isolated from human infections and collected at Saarland University Medical Center’s Institute for Medical Microbiology and Hygienics (IMMH) in 2009. According to Magiorakos et al., PA54 can be classified as multidrug-resistant due to its lacking sensibility to the anti-pseudomonal cephalosporins ceftazidime and cefepime, the anti-pseudomonal fluoroquinolones ciprofloxacin and levofloxacin, the […] fosfomycin, and the aminoglycoside gentamicin.[18] The minimum inhibitory concentration (MIC) of the reserve antibiotic meropenem (meropenem trihydrate, Sigma) was 1 µg/mL (sensitivity limit = 2 µg/mL). The exoU- and exoT-positivity of the PA54 strain, foregrounds its keratitogenic potential.
Inoculum: The P. aeruginosa strain PA54 is routinely grown overnight on blood agar (TrypticaseTM Soy Agar, 5% sheep blood, BD, Heidelberg, Germany) at 37 °C. To obtain a stationary phase cell inoculum, a freshly grown colony was inoculated in tryptic soy broth (TSB; BD, Heidelberg, Germany) and cultured at 37 °C and 150 rounds per minute (rpm) for 16 h.
Then, 2 mL were centrifuged at 13,200 rpm at rt for 2 min, whereupon cells were resuspended in spent medium to an OD600 of 10 (∼1×1010 CFU/mL). Short storage on ice followed, before the infection procedure started.
Infection Procedure: Anesthesia and infection were performed as previously published. Briefly, fentanyl (Hameln Pharma Plus GmbH, Hameln, Germany), midazolam hydrochloride (Midazolam-Hameln, 5 mg/mL, Hameln pharma GmbH, Germany) and medetomidine hydrochloride (Domitor, Orion Corporation, Espoo, Finland) were dissolved in 0.9% NaCl (NaCl 0.9%, Ecotainer 500 mL, B. Braun, Melsungen, Germany), dosed at 0.05 mg/kg, 5 mg/kg and 0.5 mg/kg body weight, respectively, and applied by intraperitoneal injection. Analgesia (Carprofen, 5 mg/kg body weight, Zoetis Deutschland GmbH, Berlin, Germany) was ap plied subcutaneously. Lacrimation was stopped with 10 µL of a 0.6% acetylcysteine solution (Pharmacy of Saarland University Hospitals, Homburg, Germany). Local analgesia (0.5% proxymetacaine hydrochloride, Proparakain -POS Augentropfen, Ursapharm Arzneimitt el GmbH, Saarbrücken, Germany) was eye-dropped and removed after 60 seconds. The blunt […]

Experiment [2] concerns P. aeruginosa strain PA54. In words: MIC against strain PA54. In kind it is cell-based. The conditions noted are these: Pseudomonas aeruginosa, read-out: minimum inhibitory concentration (MIC). As for the experimental part: The analysis of fold change and copy numbers was conducted through Microsoft Excel, and the data were graphically represented using GraphPad Prism 9.
Table S17: Primers and probes applied in this study (designs were carried out using Geneious Prime bioinformatics […]
Gene Forward primer Reverse Primer Probe Description […]
lasB GAACA CAG CCAA aeruginosa […]
GACTTC CCTG CCGA sigma factor RpoS […]
rho AAC GTTG TCATCGG termination factor
as §1, §2
P. aeruginosa: The P. aeruginosa strain PA54 was employed to induce an experimental bacterial keratitis in the aforementioned C57BL/6N mice. The strain PA54 was isolated from human infections and collected at Saarland University Medical Center’s Institute for Medical Microbiology and Hygienics (IMMH) in 2009. […]

For the compound `C[C@@H](O)[C@H]1C(=O)N2C(C(=O)O)=C(S[C@@H]3CN[C@H](C(=O)N(C)C)C3)[C@H](C)[C@H]12` [meropenem, reference compound], in experiment [1] (day 3 post infection, compared to sham treatment / uninfected eyes), the “IL‐1β levels in eye homogenate” value is on record as “almost on the level of this cytokine seen in uninfected eyes”. The “KC levels in eye homogenate” value in experiment [1] (day 3 post infection, compared to uninfected eyes) was “significantly higher amounts of this chemokine”. The “reduction of bacterial load in the eye (median)” value in experiment [1] (day 3 post infection, whole-eye homogenates) is given as 64 fold. In experiment [1] (day three post infection, topical every 8 h for 72 h, 1 mg/mL (R)-30 and/or 0.5 mg/mL meropenem), the “median clinical keratitis score” value worked out at 3. In experiment [2], the MIC was 1 µg/mL (≈ 2.61 µM).
